Test results from patent US20230312564A1, “AROMATIC RING-LACTAM COMPOUND, PREPARATION METHOD THEREFOR AND USE THEREOF” (SHANGHAI RINGENE BIOPHARMA CO., LTD., priority 2020, published 2023).
“And” between values parts separate entries of the source, which are not always exact repeats. Identical values can stand only once. Like-named read-outs stand apart in the source and are kept apart here. Blank lines part the entries; values can stand above or below the molecule they belong to.

How the values were obtained:
[1] = Liver microsomal metabolic stability, human; type: in vitro ADME; settings: 0.5 mg/mL microsomes, 1 μM compound, NADPH; for half-life at 1 μM: liver microsomes, read-out: Liver microsomal stability T1/2
Description: (§1) The reaction was stopped with tinidazole-containing acetonitrile at 0 min, 5 min, 10 min and 30 min, respectively. After vortexing for 10 min and centrifuging at 15,000 rmp for 10 min, 50 μL of the supernatant was injected into a 96-well plate. The metabolic stability of the compound was calculated by determining the relative reduction of the drug, calculated as half-life T1/2.

[2] = Liver microsomal metabolic stability, rat; type: in vitro ADME; settings: 0.5 mg/mL microsomes, 1 μM compound, NADPH; for half-life at 1 μM: liver microsomes, read-out: Liver microsomal stability T1/2
Description: as §1

[3] = Liver microsomal metabolic stability, dog; type: in vitro ADME; settings: 0.5 mg/mL microsomes, 1 μM compound, NADPH; for half-life at 1 μM: liver microsomes, read-out: Liver microsomal stability T1/2
Description: as §1

[4] = tested on: Colo-205 cells; experiment: Colo-205 tumor cell proliferation, CCK-8, 72 hours; type: cell-based; settings: for IC50: read-out: Colo-205 IC50; for cell proliferation inhibitory activity (in words): Colo-205
Description: 1. Test method: Colo-205 cells (ATCC) in logarithmic growth phase were inoculated into a 96-well culture plate at an appropriate density with 90 μL per well. After overnight culture, different concentrations of the compound were added and acted for 72 hours, and a solvent control group (negative control) was set. After the compound was acted on cells for 72 hours, the effect of the compound on cell proliferation was detected by the cell counting kit CCK-8 (Dojindo), and 10 μL of CCK-8 reagent was added to each well. After the plate was placed in a 37° C. incubator for 2 to 4 hours, a full-wavelength microplate reader SpectraMax 190 was adopted for obtaining the readings with a measured wavelength of 450 nm. […] The IC50 value was obtained by four-parameter regression with the software attached to the microplate reader.

[5] = Liver microsomal metabolic stability, mouse; type: in vitro ADME; settings: 0.5 mg/mL microsomes, 1 μM compound, NADPH; for half-life at 1 μM: liver microsomes, read-out: Liver microsomal stability T1/2
Description: as §1

[6] = Liver microsomal stability, comparisons in words across species; type: in vitro ADME; settings: for stability of different kinds of liver microsomes (in words): different species, versus the comparative compounds
Description: as §1

[7] = target: T1, ERK1/2 kinase; experiment: ERK1/2 kinase (Carna) inhibitory activity, Caliper mobility shift; type: biochemical; settings: for IC50: numeric values, read-out: ERK½ IC50
T1 construct: fused on or other part: Carna's ERK products carry a GST tag by vendor knowledge
Description: (1) Preparation of 1×Kinase buffer; (2) preparation of compound concentration gradient: the initial test concentration of the tested compound was 10 μM, which was 3-fold diluted to 10 concentrations, and a duplicate test was conducted, and then the tested compound was diluted in a 96 well plate to a 100-fold final concentration of 10 different concentrations of solution. […] Log (inhibitor) vs. response—Variable slope of the analysis software GraphPad Prism 5 was used to fit the dose-effect curve to obtain the IC50 value of each compound on the enzyme activity.
2. […] (A<10 nM, 10 nM≤B<200 nM, C≥200 nM)

[8] = tested on: Colo-205 transplanted tumor; experiment: Growth inhibition of nude mice Colo-205 transplanted tumor; type: in vivo
Description: The tumor tissue in the vigorous growth phase was cut into about 1.5 mm^3 and inoculated subcutaneously in the right axilla of nude mice under sterile conditions. The diameter of subcutaneous transplanted tumors in nude mice was measured with a vernier caliper, and the mice were randomly divided into groups when the average tumor volume reached about 130 mm^3. The embodiment compounds (injection water containing 1% Tween 80 were configured to a desired concentration for later use) were orally administered daily at a given dose for three consecutive weeks, and the solvent control group was administered with the same amount of solvent. During the whole test, the diameter of transplanted tumor was measured twice a week, and the mice were weighed at the same time. The calculation formula of tumor volume (TV) is expressed as TV=1/2×a×b^2, wherein a and b represent length and width, respectively. The relative tumor volume (RTV) was calculated according to the measurement results, and the calculation formula is RTV=Vt/V0, wherein V0 is the tumor volume measured when administered in separate cages (i.e., d0), and Vt is the tumor volume at the time of each measurement.

[9] = In-vivo pharmacokinetic parameters in mice; set-up: species or system Balb-c mice
Description: (§2) Six male SPF grade SD rats or Balb-c mice (Shanghai Sipple-Bikai Laboratory Animal) were divided into two groups, and the tested compounds were prepared into appropriate solutions or suspensions; one group was administered intravenously (with a dose of 1 mg/kg), and the other group was administered orally (with a dose of 5 mg/kg). Blood samples were collected by jugular vein puncture, and each sample was collected with a volume of about 0.2 mL/time point, and heparin sodium was used for anticoagulation. The time points of blood collection were listed below: 5, 15 and 30 min […], 1, 2, 4, 6, 8 and 24 h after administration; the collected blood samples were placed on ice and centrifuged to separate plasma (centrifugation conditions: 8,000 rpm, 6 min, 2 to 8° C.), and the collected plasma was stored at −80° C. before analysis. Plasma samples were analyzed by LC-MS/MS.
(§3) The pharmacokinetic parameters such as AUC0-t, AUC0-∞, MRT0-∞, Cmax, Tmax, T1/2 and Vd of the tested compounds and their mean values and standard deviations were calculated by the pharmacokinetic calculation software WinNonlin5.2 non-compartmental model according to the plasma concentration data. In addition, the bioavailability (F) was calculated by the following formula.
(§4) For samples with concentrations below the lower limit of quantitation, while pharmacokinetic parameter calculations were performed, samples sampled before Cmax was reached should be calculated as a zero value and samples sampled after Cmax was reached should be calculated as below limit of quantitation (BLQ).

[10] = In-vivo pharmacokinetic parameters in SD rats
Description: as §2, §3, §4

[11] = Homo sapiens, COLO 205, 72 hours, CCK-8, numeric values
[12] = rat, dog and human, compared with the comparative compound 1
[13] = 72 hours, CCK-8, numeric values
[14] = male, Balb-c, mouse, plasma, IV, 1 mg/kg
[15] = male, Balb-c, mouse, plasma, PO, 5 mg/kg
[16] = male, rat, plasma, 1 mg/kg, IV, 1 mpk
[17] = male, rat, plasma, 5 mg/kg, PO, 5 mpk

- half-life at 1 μM [1]: 3 min
- half-life at 1 μM [2]: 4 min
- half-life at 1 μM [3]: 40 min
SMILES: Cc1cccc([C@@H](CO)NC(=O)[C@@H](C)N2Cc3ccc(-c4nc(NC5CCOCC5)ncc4Cl)cc3C2=O)c1 [Comparative compound 1, (R)-2-(6-(5-Chloro-2-((tetrahydro-2H-pyran-4-yl)amino)pyrimidin-4-yl)-1-oxoisoindolin-2-yl)-N—((S′)-2-hydroxy-1l-(in-tolyl)ethyl)propanamide, reference compound]

SMILES: Cc1cccc([C@@H](CO)NC(=O)[C@@H](C)N2Cc3ncc(-c4nc(NC5CCOCC5)ncc4Cl)cc3C2=O)c1 [Comparative compound 3, (R)-2-(3-(5-Chloro-2-((tetrahydro-2H-pyran-4-yl)amino)pyrimidin-4-yl)-5-oxo-5,7-dihydro-6H-pyrrolo[3,4-b]pyridin-6-yl)-N—((S)-2-hydroxy-1-(m-tolyl)ethyl)propanamide, reference compound]
- half-life at 1 μM [1]: 6 min
- IC50 ([4]; Homo sapiens, COLO 205, 72 h): 53.1 nM
- half-life at 1 μM [2]: 6 min
- half-life at 1 μM [3]: 201 min

SMILES: Cc1cccc([C@@H](CO)NC(=O)[C@@H](C)N2Cc3c(F)cc(-c4nc(NC5CCOCC5)ncc4Cl)cc3C2=O)c1 [Comparative compound 4, (R)-2-(6-(5-Chloro-2-((tetrahydro-2H-pyran-4-yl)amino)pyrimidin-4-yl)-4-fluoro-1-oxoisoindolin-2-yl)-N—((S)-2-hydroxy-1-(m-tolyl)ethyl)propanamide, reference compound]
- half-life at 1 μM [1]: 3 min
- IC50 ([4]; Homo sapiens, COLO 205, 72 h): 37.8 nM
- half-life at 1 μM [2]: 3 min
- half-life at 1 μM [3]: 60 min

SMILES: COc1cc(F)cc([C@@H](CO)NC(=O)[C@@H](C)N2Cc3ccc(-c4nc(NC5CCOCC5)ncc4Cl)cc3C2=O)c1 [Comparative compound 5, (R)-2-(6-(5-Chloro-2-((tetrahydro-2H-pyran-4-yl)amino)pyrimidin-4-yl)-1-oxoisoindolin-2-yl)-N—((S)-1-(3-fluoro-5-methoxyphenyl)-2-hydroxyethyl)propanamide, reference compound]
- half-life at 1 μM [1]: 3 min
- half-life at 1 μM [5]: 15 min
- half-life at 1 μM [2]: 3 min
- half-life at 1 μM [3]: 41 min

- half-life at 1 μM [1]: 62 min
- half-life at 1 μM [5]: 234 min
- stability of different kinds of liver microsomes (in words) [6]: significant advantages
- IC50 [4, 11]: 90.9 nM
- IC50 [7]: 5.3 nM
- half-life at 1 μM [2]: 13 min
- half-life at 1 μM [3]: 78 min
SMILES: C[C@H](C(=O)N[C@H](CO)c1cccc(Cl)c1)N1Cc2ccc(-c3nc(NC4CCOCC4)ncc3Cl)nc2C1=O [Embodiment 21]

- Liver microsomal stability T1/2 [1]: 18 min
- stability in liver microsomes (in words) ([6]; rat and human, compared with the comparative compounds 1 and 4): significantly improved
- stability in liver microsomes (in words) [6, 12]: significantly improved
- IC50 ([4]; 72 hours, CCK-8, class symbols): < 100 nM
- IC50 [7]: 0.7 nM
- Liver microsomal stability T1/2 [2]: 10 min and 15 min
- Liver microsomal stability T1/2 [3]: 60 min and 70 min
SMILES: Cc1cccc([C@@H](CO)NC(=O)[C@@H](C)N2Cc3ccc(-c4nc(NC5CCOCC5)ncc4Cl)c(F)c3C2=O)c1 [Embodiment 25]
- enzyme inhibitory activity (in words) [7]: extremely strong enzyme inhibitory activity

- Liver microsomal stability T1/2 [1]: 18 min
- Liver microsomal stability T1/2 [5]: 12 min
- stability of different kinds of liver microsomes (in words) [6]: significant advantages
- IC50 [4, 13]: 34.3 nM
- IC50 [7]: 0.8 nM
- Liver microsomal stability T1/2 [2]: 19 min
- Liver microsomal stability T1/2 [3]: 75 min
SMILES: C[C@H](C(=O)N[C@H](CO)c1cccc(Cl)c1)N1Cc2ccc(-c3nc(NC4CCOCC4)ncc3Cl)c(F)c2C1=O [Embodiment 34]
- cell proliferation inhibitory activity (in words) [4]: strong cell proliferation inhibitory activity

- Liver microsomal stability T1/2 [1]: 11 min
- Liver microsomal stability T1/2 [5]: 12 min
- stability of different kinds of liver microsomes (in words) [6]: significant advantages
- IC50 [4, 13]: 4.4 nM
- IC50 [7]: < 1 nM
- Liver microsomal stability T1/2 [2]: 14 min
- F ([9]; PO 5 mg/kg vs IV 1 mg/kg): 54%
- AUC(0-inf) [9, 14]: 0.586 µM·h
- AUC(0-t) [9, 14]: 0.583 µM·h
- MRT inf [9, 14]: 18 min
- clearance [9, 14]: 50 mL/min/kg
- half-life [9, 14]: 48 min
- Vd ([9]; male, Balb-c, mouse, plasma, IV, 1 mg/kg, read-out: Vss): 0.9 L/kg
- AUC(0-inf) [9, 15]: 1.58 µM·h
- AUC(0-t) [9, 15]: 1.57 µM·h
- Cmax [9, 15]: 1680 nM
- Tmax [9, 15]: 18 min
- half-life [9, 15]: 66 min
- F ([10]; PO 5 mpk vs IV 1 mpk): 17%
- AUC(0-inf) [10, 16]: 0.538 µM·h
- AUC(0-t) [10, 16]: 0.536 µM·h
- MRT inf [10, 16]: 18 min
- clearance [10, 16]: 54 mL/min/kg
- half-life [10, 16]: 48 min
- Vd ([10]; male, rat, plasma, 1 mg/kg, IV, 1 mpk, read-out: Vss): 0.8 L/kg
- AUC(0-inf) [10, 17]: 0.452 µM·h
- AUC(0-t) [10, 17]: 0.446 µM·h
- Cmax [10, 17]: 396 nM
- Tmax [10, 17]: 18 min
- half-life [10, 17]: 66 min
- Liver microsomal stability T1/2 [3]: 27 min
SMILES: C[C@H](C(=O)N[C@H](CO)c1cccc(Cl)c1)N1Cc2ccc(-c3nc(NC4CCOCC4)ncc3F)c(F)c2C1=O [Embodiment 37]
- T/C ([8]; 50 mg/kg, qdx21, po): 28.3%
- Initial weight (D0) ([8]; 50 mg/kg, qdx21, po, D0): 23.3 g
- Terminal weight (D21) ([8]; 50 mg/kg, qdx21, po, D21): 24.5 g
- Initial tumor volume ([8]; 50 mg/kg, qdx21, po, initial): 95 ± 19 mm^3
- Terminal tumor volume ([8]; 50 mg/kg, qdx21, po, terminal): 285 ± 137 mm^3
- effect on the tumor weight (in words) ([8]; dose of 50 mg/kg or 25 mg/kg): no significant effect on the tumor weight
- tumor growth of Colo-205 transplanted tumor nude mice (in words) ([8]; dose of 50 mg/kg or 25 mg/kg): significantly inhibited the tumor growth
- cell proliferation inhibitory activity (in words) [4]: strong cell proliferation inhibitory activity

- Liver microsomal stability T1/2 [1]: 15 min
- stability in liver microsomes (in words) [6, 12]: significantly improved
- stability in liver microsomes (in words) ([6]; rat, dog and human, compared with the comparative compounds 1 and 3): significantly improved
- IC50 [4, 13]: 88.6 nM
- IC50 [4, 11]: 354 nM
- Liver microsomal stability T1/2 [2]: 18 min
- Liver microsomal stability T1/2 [3]: 403 min
SMILES: C[C@H](C(=O)N[C@H](CO)c1cccc(Cl)c1)N1Cc2ccc(-c3ccnc(Nc4ccnn4C)c3)cc2C1=O [compound 2, (R)—N—((S)-1-(3-Chlorophenyl)-2-hydroxyethyl)-2-(6-(2-((1-methyl-1H-pyrazol-5-yl)amino)pyridin-4-yl)-1-oxoisoindolin-2-yl)propanamide, reference compound]
- cell proliferation inhibitory activity (in words) [4]: strong cell proliferation inhibitory activity
- enzyme inhibitory activity (in words) [7]: extremely strong enzyme inhibitory activity
